Measured values published in PMC11229439 (GeroScience, 2023).

Target: T1, cystathionine γ-lyase (CGL) (Rattus norvegicus, UniProt P18757)
T1 construct: gene Cth
Test: homoserine γ-elimination assay (2-oxobutanoate), Dixon plot
Format: biochemical

T1 sequence (P18757 whole entry): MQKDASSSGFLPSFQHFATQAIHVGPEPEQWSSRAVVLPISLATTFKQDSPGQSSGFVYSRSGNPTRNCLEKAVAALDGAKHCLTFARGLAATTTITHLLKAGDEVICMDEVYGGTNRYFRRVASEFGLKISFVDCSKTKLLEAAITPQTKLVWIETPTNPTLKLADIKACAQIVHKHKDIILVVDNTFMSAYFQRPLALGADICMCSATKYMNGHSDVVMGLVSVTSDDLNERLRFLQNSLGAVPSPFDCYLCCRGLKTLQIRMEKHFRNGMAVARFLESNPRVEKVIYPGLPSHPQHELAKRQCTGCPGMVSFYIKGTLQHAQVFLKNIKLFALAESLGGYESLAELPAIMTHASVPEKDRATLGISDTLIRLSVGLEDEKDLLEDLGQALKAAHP

Structure (SMILES): N[C@@H](CS)C(=O)O [cysteine]
- Ki: 520 µM
